These results are taken from US20180263979A1, “COMBINATION OF RAF INHIBITORS AND AURORA KINASE INHIBITORS” (MILLENNIUM PHARMACEUTICALS, INC., priority 2014, published 2018).

The test system of series [1] is A375 melanoma xenograft (B-Raf mutant). Nature of the series: In vivo tumor efficacy, B-Raf mutated A375 human melanoma xenograft model. Details: species or system Mouse (Mus musculus) Athymic Balb/c Nude. The settings on record: for Mean Maximum % BWL: Day 0 to Day 21; for TGI: Day 21 post treatment initiation. The procedure: Each animal was inoculated with 3×10^6 A375 tumor cells (in 0.1 mL, 1:1 with Matrigel) into the right flank for tumor model development. Body weight and the tumor growth were monitored twice weekly. Tumor size was measured to the nearest 0.1 mm using vernier calipers and applying the formula V=W2×L/2, where V=volume, W=width, and L=length for the tumor xenograft. Xenografts were allowed to grow until they reached an average size of approximately 195 min3, 11 days after inoculation.
Sodium alisertib was formulated in 10% HPβCD plus 1% NaHCO3 in water for injection (WFI) (Vehicle 2). Alisertib was prepared and stored at room temperature (18 to 25° C.).
Animals in the vehicle treatment group were given both Vehicle 1 and Vehicle 2.
The dose volume for vehicle or compound was 5 mL/kg body weight.
Tumor size and body weight were measured twice weekly beginning on the day of animal grouping (e.g., Day 0). Animals were terminated when their tumor reached approximately 2000 mm3 and the study was terminated on Day 38 post treatment initiation.
Inhibition of tumor growth was determined by calculating the percent TGI (MTV of the vehicle group−MTV of a treated group)/MTV of the vehicle group] on Day 21 post treatment initiation. Statistical comparisons of tumor growth between treatment groups and vehicle were conducted using a linear mixed effects regression analysis on the ΔAUC.
Statistical analysis was carried out as described in Example 2.
In general terms: In xenograft studies the graft and the host belong to different species.

The test system of series [2] is SK-MEL-2 human melanoma xenograft (NRAS mutant). In kind it is in vivo. The settings on record: for Non-Specific Deaths / Regression (100%) / Tumor Free on Day 74: n=8; for Delta AUC: vs vehicle. The protocol: Eight week old female athymic NCr-nu/nu mice were inoculated SC with 30-40 mg tumor fragments, propagated in an in vivo passage, in the area of the right flank. Tumor growth was monitored with vernier calipers and the tumor volume was calculated using the formula (0.5×[length×width^2]). When the mean tumor volume (MTV) reached approximately 167 mm^3 (range of 100-245 mm^3) animals were randomized into 12 treatment groups (n=8/group). The animals were dosed beginning 12 days after tumor inoculation with either vehicles or test compounds. The first day of treatment was designated as Day 0.
The 10 mg/mL solution was diluted with 100% PEG 400 for the lower dose.
Sodium alisertib was formulated in a half volume of 20% HPBCD in WFI and then diluted to a final volume (10% HPBCD/1% NaHCO3 in WFI) with 2% sodium bicarbonate in WFI.
The 2 vehicles, 100% PEG 400 (Vehicle 1) and 10% HPBCD/1% NaHCO3 in WFI (Vehicle 2) were administered (0.05 mL/10 g BW) concomitantly to mice in the vehicle group.
Tumor size and body weight were measured BIW beginning on the first day of treatment. Animals were terminated when their tumor reached approximately 2000 mm3, and the study was terminated on Day 62 post treatment initiation.
Inhibition of tumor growth was determined by calculating the percent TGI (MTV of the vehicle group−MTV of a treated group)/MTV of the vehicle group on Day 20 post treatment initiation. Statistical comparisons of tumor growth between treatment groups and vehicle were conducted using a linear mixed effects regression analysis on the ΔAUC.
Additional endpoints used to evaluate efficacy were: nonspecific deaths, complete tumor response, and the number of tumor-free survivors (TFS), defined as no measurable tumor observed on the last day of data collection prior to study termination (Day 62 post treatment initiation). A complete response (CR) was defined as a decrease in tumor mass to an undetectable size (<32 mm3).
The differences in the tumor growth trends over time between the vehicle control and treatment groups were assessed using linear mixed effects regression models. These models take into account that each animal was measured at multiple time points. A model was fit for the comparison, and the areas under the tumor volume-versus-time curve (AUCs) for control and treatment groups were calculated using the values predicted from the model.
These values were compared across treatment groups to assess whether the differences in trends over time were statistically significant. To compare pairs of treatment groups, the following mixed-effects linear regression model was fit to the data using the maximum likelihood method:
Where Yijk is the log 10 tumor value at the jth time point of the kth animal in the ith treatment, Yi0k is the day 0 (baseline) log 10 tumor value in the kth animal in the ith treatment, dayj was the median-centered time point and (along with day2j) was treated as a continuous variable, and eijk is the residual error. A spatial power law covariance matrix was used to account for the repeated measurements on the same animal over time. Interaction terms as well as day2j terms were removed if there were not statistically significant.
The −2 log likelihood of the full model was compared to one without any treatment terms (reduced model) and the difference in the values was tested using a Chi-squared test. The degrees of freedom of the test were calculated as the difference between the degrees of freedom of the full model and that of the reduced model.
The predicted differences in the log tumor values (Yijk-Yi0k, which can be interpreted as log 10 (fold change from day 0)) were taken from the above models to calculate mean AUC values for each treatment group. A dAUC value was then calculated as: […]
For synergy analysis, the observed differences in the log tumor values were used to calculate AUC values for each animal. […]

Where [3] appears, read: Compound A 12.5 mg/kg PO QD Days 1-21 (+Vehicle 2).
[4] abbreviates: Compound A 50 mg/kg PO BIW Days 1, 4, 8, 11, 15, 18 (+Vehicle 2).
The mark [5] stands for this setting: Compound A 12.5 mg/kg/inj PO Q1D x 21 from Day 12 (+Vehicle 2).
Setting [6] is: Compound A 50 mg/kg/inj PO Q3D x 2/3 wks (BIW) from Day 12 (+Vehicle 2).
[7] abbreviates: alisertib 10 mg/kg PO QD Days 1-21 (+Vehicle 1).
Setting [8] is: alisertib 20 mg/kg PO QD Days 1-21 (+Vehicle 1).
[9] abbreviates: alisertib 20 mg/kg/inj PO Q1D x 21 from Day 12 (+Vehicle 1).

Read-outs that look alike come from different tables or passages of the source.

With `C[C@@H](NC(=O)c1ncnc(N)c1Cl)c1ncc(C(=O)Nc2cc(C(F)(F)F)c(Cl)cn2)s1` [Compound A, (R)-2-(1-(6-amino-5-chloropyrimidine-4-carboxamide)ethyl)-N-(5-chloro-4-(trifluoromethyl)pyridin-2-yl)thiazole-5-carboxamide], in series [1] (setting [3]), the “Mean Maximum % BWL” value turned out to be 0% and the inhibition of tumour growth (TGI) came out at 76.4%. Moreover, in series [1] (setting [4]), the “Mean Maximum % BWL” value came to 0% and the TGI was found to be 45.3%. Also, in series [2] (setting [5]), the “Mean Tumor Volume on Day 32” value amounted to 645 mm^3, the “TGI on Day 32” value came to 70.7%, the “Non-Specific Deaths” value stood at 0 and the “Regression (100%)” value came out at 0. Moreover, in series [2] (setting [5]), the “Tumor Free on Day 74” value was 0 and the “Delta AUC” value is recorded as 37.3. In addition, in series [2] (setting [6]), the “Mean Tumor Volume on Day 32” value was found to be 816 mm^3, the “TGI on Day 32” value is 62.9%, the “Non-Specific Deaths” value stood at 0 and the “Regression (100%)” value was 0. Also, in series [2] (setting [6]), the “Tumor Free on Day 74” value is 0 and the “Delta AUC” value was determined as 35.6.

Consider `COc1cc(Nc2ncc3c(n2)-c2ccc(Cl)cc2C(c2c(F)cccc2OC)=NC3)ccc1C(=O)O` [alisertib, 4-{[9-chloro-7-(2-fluoro-6-methoxyphenyl)-5H-pyrimido[5,4-d][2]benzazepin-2-yl]amino}-2-methoxybenzoic acid, reference compound], for which, in series [1] (setting [7]), the “Mean Maximum % BWL” value was determined as 0% and the TGI came to 21.7%. Moreover, in series [1] (setting [8]), the “Mean Maximum % BWL” value came out at 0% and the TGI stood at 40.7%. Besides, in series [2] (setting [9]), the “Mean Tumor Volume on Day 32” value is listed as 872 mm^3, the “TGI on Day 32” value was 60.3%, the “Non-Specific Deaths” value is listed as 0 and the “Regression (100%)” value was determined as 0. Moreover, in series [2] (setting [9]), the “Tumor Free on Day 74” value turned out to be 0 and the “Delta AUC” value was found to be 30.9.

Broadly, the TGI is how far tumour growth fell short of that in controls. Low readings indicate little slowing of growth, high ones much slowing of growth.
